Laboratory results taken from patent publication US10004786B2 (Zealand Pharma A/S, priority 2009, dated 2018).
Numbered stars: 1 amine (or outer) side, 2 acyl side, 3 side chain; on linkers, the order of the positions; unused ones are H or OH. Square brackets hold non-standard residues; d marks the D form. Side chains are listed from the residue outwards. Peptide text beside a SMILES is read from it. * marks the point of attachment. γGlu = O=C(O)[C@H](CCC(=O)[*:2])N[*:1]; Palmitoyl = CCCCCCCCCCCCCCCC(=O)*; Aib = CC(C)(N)C(=O)O

Tests used:
[1] = Liver weight/body weight of C57BL/6J mice treated for 2 weeks; format: in vivo
Protocol: Mice were treated twice daily s.c. with Cpd. 1 and Cpd. 11 (at two doses: 0.5 and 5 nmol/kg) or vehicle for 2 weeks. Throughout the study, body weights were recorded daily and used to administer the body weight-corrected doses of peptide. On the day of sacrifice, the liver was exposed, and weighed.

[2] = Body weight after 21 days s.c. administration in long term high fat fed mice; format: in vivo; details: 21 days b.i.d. s.c., 10 nmol/kg, long term high fat-fed C57BL/6J mice; p<0.05
Protocol: (§1) Male mice (Long term high fat fed C57Bl/6J, short term high fat fed C57Bl/6J and db/db) were acclimatized with free access to food and water. They were housed in groups of 5-6 in a light-, temperature-, and humidity-controlled room (12-hour light:12-hour dark cycle, lights On/Off at 2000/0800 hour; 24° C.; 50% relative humidity).
(§2) The animals were injected s.c. with 100 μl vehicle (once a day) for a period of three days to acclimatize the animals to handling and injections. Blood samples were taken from the eye or from the tip of the tail. The animals were randomized before treatment.
(§3) Mice were treated twice daily s.c. with GluGLP-1 agonist or vehicle (injection volume=2.5 ml/kg). Throughout the study, body weights were recorded daily and used to administer the body weight-corrected doses of peptide. Peptide solutions were prepared fresh immediately before dosing.
Effect of 21 days s.c. administration of compound 11 on body weight was determined in long term high fat-fed C57BL/6J mice. C57Bl/6J male mice on high fat diet (HFD) were treated (b.i.d.; s.c.) with compound 11 (10 nmol/kg) or vehicle. Body weights were recorded daily and used to administer the body weight-corrected doses of peptide throughout the study. Data are shown as mean±SEM in FIG. 4.

[3] = Plasma lipids after 3 weeks s.c. administration in 30 weeks high fat diet fed mice; format: in vivo, C57BL/6J mice; details: 10 nmol/kg twice daily s.c.
Protocol: The assay is an enzymatic colorimetric method. In the presence of magnesium ions, dextran sulfate selectively forms water-soluble complexes with LDL, VLDLA and chylomicrons, which are resistant to PEG-modified enzymes. The HDL cholesterol is determined enzymatically by cholesterol esterase and cholesterol oxidase coupled with PEG to the amino groups. Cholesterol esters are broken down quantitatively to free cholesterol and fatty acids. HDL cholesterol is enzymatically oxidized to choles-4-en-3-one and H2O2, and the formed H2O2 is measured colorimetrically (Cobas®; Application note HDLC3).
The direct determination of LDL takes advantage of the selective micellary solubilization of LDL by a nonionic detergent and the interaction of a sugar compound and lipoproteins (VLDL and chylomicrons). The combination of a sugar compound with detergent enables the selective determination of LDL in plasma. The test principle is the same as that of cholesterol and HDL, but due to the sugar and detergent only LDL-cholesterol esters are broken down to free cholesterol and fatty acids. Free cholesterol is then oxidized and the formed H2O2 is measured colorimetrically (Application note LDL_C, Cobas®).
The effect was measured on LDL, HDL and triglycerids (CHO: Total Cholesterol; HDL: High Density Cholesterol; LDL: Low Density Cholesterol; TRIG: Triglycerides; HDL/LDL: Ratio between HDL and LDL).

[4] = HbA1c in db/db mice after 28 days; format: in vivo; details: 4 weeks, 12.7 nmol/kg, P=0.03 Students t-test
Protocol: as §1, §2
Mice were treated twice daily s.c. with GluGLP-1 agonist or vehicle (injection volume=2.5 ml/kg). Throughout the study, body weights were recorded daily and used to administer the body weight-corrected doses of peptide. Peptide solutions were prepared fresh immediately before dosing. […]
The HbA1c determination is based on Turbidimetric INhibition ImmunoAssay (TINIA) in which HbA1c in the sample reacts with anti-HbA1c to form soluble antigen-antibody complexes. Additions of polyhaptens react with excess anti-HbA1c antibodies to form an insoluble antibody-polyhapten complex, which can be measured turbidimetrically. Liberated hemoglobin in the hemolyzed sample is converted to a derivative having a characteristic absorption spectrum, which is measured bichromatically during the preincubation phases. […]

[5] = Pharmacokinetic screening in mouse plasma after subcutaneous administration; format: in vivo; details: sc, mice, 100 nmol/kg s.c., * = only two time points used for calculation
Protocol: Mice were dosed 100 nmol/kg subcutaneously (s.c.). The mice were sacrificed and the blood collected at the following time points; 0.5, 2, 4, 6, 16 and 24 h. Plasma samples were analyzed using protein precipitation, followed by solid phase extraction (SPE) and liquid chromatography mass spectrometry (LC-MS).
Pharmacokinetic profiles were determined for various acylated compounds.

[6] = Body weight gain in high fat fed C57BL/6J mice (10 days); format: in vivo; details: 5 nmol/kg b.i.d. s.c., short term high fat-fed C57BL/6J mice
Protocol: C57Bl/6J male mice, 6 weeks old, were acclimatized in their new environment for 4 weeks with free access to high fat diet (HFD) (D12492, Research Diet Inc., New Brunswick, USA) and water. The animals were injected s.c. with 100 μl vehicle for a period of three days to acclimatize the animals to handling and injections, prior to initiation of peptide treatment. […] Throughout the study, body weights were recorded daily and used to administer the body weight-corrected doses of peptide. All animals were sacrificed on the same day by cervical dislocation.
C57Bl/6J male mice on high fat diet (HFD) were treated (b.i.d.; s.c.) (0.5 and 5 nmol/kg) or vehicle. Body weights were recorded daily and used to administer the body weight-corrected doses of peptide throughout the study. Data are shown as mean±SEM in FIG. 7.

[7] = Oral glucose tolerance test after 21 days s.c. administration in long term high fat fed mice; format: in vivo; details: 10 nmol/kg, long term high fat-fed C57BL/6J mice, two way ANOVA
Protocol: as §1, §2, §3
Oral glucose tolerance tests (OGTT) were performed after subjecting the animals to a short fast. To prevent confounding food intake, the animals were kept fasted during the OGTTs. After peptide dosing an initial blood sample was taken. […] The whole blood glucose (BG) was measured at t=15 min, t=30 min, t=60 min, t=90 min and t=120 min.
The BG concentration was analyzed by the immobilized glucose oxidase method using a drop of blood (<5 μl; Elite Autoanalyser, Bayer, Denmark) following the manufacturer's instructions. […]

In the case of `CCCCCCCCCCCCCCCC(=O)N[C@@H](CCC(=O)NCCCC[C@H](NC(=O)[C@H](CO)NC(=O)[C@H](CC(=O)O)NC(=O)[C@H](CC(C)C)NC(=O)[C@H](Cc1ccc(O)cc1)NC(=O)[C@H](CCCCN)NC(=O)[C@H](CO)NC(=O)[C@H](Cc1ccc(O)cc1)NC(=O)[C@H](CC(=O)O)NC(=O)[C@H](CO)NC(=O)[C@@H](NC(=O)[C@H](Cc1ccccc1)NC(=O)[C@@H](NC(=O)CNC(=O)[C@H](CCC(N)=O)NC(=O)C(C)(C)NC(=O)[C@@H](N)Cc1c[nH]cn1)[C@@H](C)O)[C@@H](C)O)C(=O)N[C@@H](C)C(=O)N[C@@H](C)C(=O)N[C@@H](Cc1c[nH]cn1)C(=O)N[C@@H](CC(=O)O)C(=O)N[C@@H](Cc1ccccc1)C(=O)N[C@H](C(=O)N[C@@H](CCC(=O)O)C(=O)N[C@@H](Cc1c[nH]c2ccccc12)C(=O)N[C@@H](CC(C)C)C(=O)N[C@@H](CC(C)C)C(=O)N[C@@H](CCCNC(=N)N)C(=O)N[C@@H](C)C(N)=O)C(C)C)C(=O)O` [Compound 11] (H-H[Aib]QGTFTSDYSKYLDSK([γGlu-Palmitoyl])AAHDFVEWLLRA-NH2), the “liver weight/body weight ratio, low dose” value ([1]; 0.5 nmol/kg twice daily s.c.) is reported as “did not affect”, the “liver weight/body weight ratio, high dose” value ([1]; 5 nmol/kg twice daily s.c.) is reported as “did not affect” and the “change in liver size” value ([1]; repeated treatment, C57 healthy control mice, compared with compound 1) is reported as “do not give rise to change in liver size”. For the same compound, the body weight [2] was “significantly decreased body weight”, the HDL ([3]; P<0.001) was “significantly decreased” and the LDL ([3]; P<0.001) was “significantly decreased”. For the same compound, the “cholesterol (total)” value ([3]; P<0.001) was “significantly decreased”, the triglycerides ([3]; P<0.05) was “significantly decreased” and the “ratio HDL/LDL” value ([3]; p<0.001) was “increased significantly”. For the same compound, the “ΔHbA1c (%) compared to vehicle” value [4] was “decreased ΔHbA1c (%) significantly”, the half-life [5] was 4.9 h and the “body weight gain, high dose” value [6] was “significantly decreased body weight gain at the high dose”. The oral glucose tolerance [7] was “significantly improved glucose tolerance”.
